Experimental data taken from ChEMBL document CHEMBL1138572, “The synthesis of N-phenoxyethyl-1-substituted-1,2,3,4-tetrahydroisoquinolines and their alpha1-adrenoceptor blocking activity” (Eur J Med Chem, 2009).

target: T1, Adrenergic receptor alpha-1 (Rattus norvegicus, UniProt P15823+P23944+P43140); experiment: Antagonist activity at alpha1 adrenoceptor in Sprague-Dawley rat aorta assessed as inhibition of norepinephrine-induced contraction treated 30 mins before norepinephrine challenge
T1 sequence (P15823 whole entry): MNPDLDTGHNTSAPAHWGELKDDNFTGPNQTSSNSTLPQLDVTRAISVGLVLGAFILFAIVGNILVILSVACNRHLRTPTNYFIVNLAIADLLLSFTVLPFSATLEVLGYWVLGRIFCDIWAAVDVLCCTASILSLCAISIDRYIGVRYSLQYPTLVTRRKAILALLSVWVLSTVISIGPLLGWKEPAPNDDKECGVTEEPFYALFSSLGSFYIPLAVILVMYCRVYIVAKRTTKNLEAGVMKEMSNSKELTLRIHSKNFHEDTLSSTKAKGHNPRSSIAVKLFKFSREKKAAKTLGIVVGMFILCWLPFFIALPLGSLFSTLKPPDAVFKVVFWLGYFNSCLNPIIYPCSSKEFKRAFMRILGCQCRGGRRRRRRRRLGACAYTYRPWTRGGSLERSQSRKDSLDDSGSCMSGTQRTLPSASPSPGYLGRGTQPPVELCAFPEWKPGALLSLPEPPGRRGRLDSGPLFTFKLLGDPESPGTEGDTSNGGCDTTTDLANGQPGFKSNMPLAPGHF
T1 sequence (P23944 whole entry): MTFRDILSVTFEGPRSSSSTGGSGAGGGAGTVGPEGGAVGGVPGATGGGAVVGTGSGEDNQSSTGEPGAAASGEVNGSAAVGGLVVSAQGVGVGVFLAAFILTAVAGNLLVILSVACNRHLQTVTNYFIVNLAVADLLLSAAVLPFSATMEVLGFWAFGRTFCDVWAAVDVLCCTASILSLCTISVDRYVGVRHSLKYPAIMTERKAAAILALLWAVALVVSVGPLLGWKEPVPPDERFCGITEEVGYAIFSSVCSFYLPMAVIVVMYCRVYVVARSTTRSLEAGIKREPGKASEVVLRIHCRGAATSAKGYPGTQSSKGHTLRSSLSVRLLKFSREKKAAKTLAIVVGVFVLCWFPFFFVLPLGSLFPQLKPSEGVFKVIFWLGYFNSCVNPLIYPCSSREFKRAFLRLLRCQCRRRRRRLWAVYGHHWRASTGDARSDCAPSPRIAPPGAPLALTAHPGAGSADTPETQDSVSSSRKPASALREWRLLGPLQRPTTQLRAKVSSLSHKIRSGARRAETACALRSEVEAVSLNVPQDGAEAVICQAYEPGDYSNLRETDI
T1 sequence (P43140 whole entry): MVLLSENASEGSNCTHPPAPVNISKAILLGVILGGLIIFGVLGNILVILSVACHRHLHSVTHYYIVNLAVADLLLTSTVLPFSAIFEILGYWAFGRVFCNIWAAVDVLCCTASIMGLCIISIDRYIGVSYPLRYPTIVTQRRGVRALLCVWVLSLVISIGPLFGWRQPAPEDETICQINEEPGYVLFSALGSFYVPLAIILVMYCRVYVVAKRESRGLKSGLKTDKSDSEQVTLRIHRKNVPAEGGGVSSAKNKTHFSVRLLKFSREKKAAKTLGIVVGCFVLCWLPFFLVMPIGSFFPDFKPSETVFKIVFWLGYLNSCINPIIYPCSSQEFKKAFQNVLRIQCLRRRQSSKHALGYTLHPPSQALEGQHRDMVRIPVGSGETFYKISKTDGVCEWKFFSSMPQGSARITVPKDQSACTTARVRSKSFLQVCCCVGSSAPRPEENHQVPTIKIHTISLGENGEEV

SMILES	pA2
COc1ccc2c(c1)C(c1ccccc1[N+](=O)[O-])N(CCOc1ccccc1)CC2 (stereo not drawn)	8.11
COc1cc2c(cc1OC)C(c1ccccc1[N+](=O)[O-])N(CCOc1ccccc1)CC2 (stereo not drawn)	9.01
COc1cc2c(cc1OC)C(c1ccccc1NCCOc1ccccc1)N(CCOc1ccccc1)CC2 (stereo not drawn)	8.33
COc1cc2c(cc1OC)C(c1ccccc1N)N(CCOc1ccccc1)CC2 (stereo not drawn)	7.66
Nc1ccccc1C1c2ccccc2CCN1CCOc1ccccc1 (stereo not drawn)	5.46
COc1ccc(N)c(C2c3cc(OC)c(OC)cc3CCN2CCOc2ccccc2)c1 (stereo not drawn)	7.51
COc1ccc(NCCOc2ccccc2)c(C2c3cc(OC)c(OC)cc3CCN2CCOc2ccccc2)c1 (stereo not drawn)	8.34
c1ccc(OCCNc2ccccc2C2c3ccccc3CCN2CCOc2ccccc2)cc1 (stereo not drawn)	7.71
COc1ccc2c(c1)C(c1ccccc1NCCOc1ccccc1)N(CCOc1ccccc1)CC2 (stereo not drawn)	6.72
O=[N+]([O-])c1ccccc1C1c2ccccc2CCN1CCOc1ccccc1 (stereo not drawn)	7.94
COc1ccc([N+](=O)[O-])c(C2c3cc(OC)c(OC)cc3CCN2CCOc2ccccc2)c1 (stereo not drawn)	8.46
COc1cc2c(cc1OC)C(Cc1ccccc1)N(CCOc1ccccc1)CC2 (stereo not drawn)	8.23
COc1ccc2c(c1)C(c1ccccc1N)N(CCOc1ccccc1)CC2 (stereo not drawn)	7.36
